Assays:
786-0 RCC xenografts = experiment: Murine 786-0 RCC xenograft model; type: in vivo, mice; conditions: for effects on tumor growth / MDSC infiltration of tumors: 786-0 xenografts; for effects on tumor growth: nude/beige mice, tumors measured on day 7, FIG. 1A; for MDSC infiltration of tumors: CD11b+ GR-1+ cells, FIGS. 5A, 5C
Procedure: (§1) With each of the human cell lines, 1×10^7 tumor cells were implanted subcutaneously in the flanks of 36 nude/beige mice and tumors allowed to grow to roughly 7 mm in diameter. […] Therefore, on day 7, the mice were sacrificed and the tumors were measured and immediately excised and divided into three parts. One part of each tumor was paraffin-embedded for dual color immunofluorescence. Another part was mechanically disaggregated and treated with collagenase/DNAse to generate a single cell suspension for flow cytometry. The third part was frozen for future pharmacokinetic analysis. Microscope slides were made from the paraffin-embedded tumor tissue, which were stained with antibodies against CD11b, Gr-1, and FAP. The number of infiltrating CD11b+/Gr-1+ MDSC and FAP+ fibroblasts present in the tumor tissue was then determined by immunofluorescence (IF) as previously described (1).
(§2) The disaggregated tumor specimens were analyzed for CD11b+/Gr-1+ MDSC and FAP+ fibroblasts by flow cytometry. The fraction of both populations expressing CXCR4 were also determined. At the time the mice were sacrificed, the spleens were removed and cut in half. One part was disaggregated into single cell suspensions and analyzed by flow cytometry as above for MDSC. The second half was frozen for future analyses, such as PK analysis. Finally, a bone marrow (BM) sample was generated by extruding marrow from an excised femur with a syringe filled with saline and analyzed by flow cytometry for MDSC.

A498 RCC xenografts = experiment: Murine A498 RCC xenograft model; type: in vivo, mice; conditions: for MDSC infiltration of tumors: CD11b+ GR-1+ cells, FIGS. 5B, 5D; for effects on tumor growth: nude/beige mice, tumors measured on day 7, FIG. 1B
Procedure: as §1, §2

[1] = over the range pH 1.1 to pH 7.8; cited from earlier work
[2] = cited from earlier work
[3] = oral axitinib; see current product label; cited from earlier work
[4] = system: renal cell carcinoma (RCC) xenografts; conditions: cited from earlier work
786 cells = 786 cells treated in vitro for 24 hours, normoxic and hypoxic (1% O2); type: cell-based, human; conditions: 786 hypoxic cells in vitro
Excerpt: FIG. 14B illustrates mir-30a and mir-30c microRNA and (FIG. 14C) total HIF-2α, RNA expression from the same cells from FIG. 14A.

A375 cells = A375 cells with or without constitutively active Stat3 construct, treated 24 h; type: cell-based; conditions: A375 cells +/- constitutively active Stat3, 24 h, normoxic or hypoxic; FIG. 15
Excerpt: FIG. 15A illustrates Western blot results from lysates of A375 cells or A375 cells transfected with a constitutively active Stat3 construct. […] Without wishing to be bound by theory, it is believed that Stat3 is important in promoting CXCL-12 mediated invasion of tumors.

[5] = Phase 1 and 2a trials; cited from earlier work

Molecule	micro-RNAs mir-30a and mir-30c expression (786-0 RCC xenografts; 786-0 xenograft tumor, after 8 days of treatment, FIG. 12)	effects on tumor growth (786-0 RCC xenografts)	MDSC infiltration of tumors (786-0 RCC xenografts)	MDSC infiltration of tumors (A498 RCC xenografts)	effects on tumor growth (A498 RCC xenografts)	solubility in aqueous media [1]	pKa [2]	absorption, effect of food [3]	development of sunitinib resistance ([4]; MI-319 given concurrently with sunitinib)	infiltration of RCC xenografts with CD11b+/Gr-1+ MDSC ([4]; earlier work by some of the inventors, MI-319 given concurrently with sunitinib)	HIF-2 expression ([4]; earlier work of the inventors)	level of HIF-2α (786-0 RCC xenografts; 786 xenograft tumors, Western blots, 8 days of treatment, FIGS. 11, 13)	mir-30a and mir-30c microRNA (786 cells; FIG. 14B)	HIF-2α (786 cells; FIGS. 14A, 14C)	suppression of HIF-2α and induction of mir-30a and 30c (A375 cells)	pharmacodynamic activity: circulating white blood cells (WBCs) [5]	volume of distribution (VL) [5]
CNC(=O)c1ccccc1Sc1ccc2c(/C=C/c3ccccn3)n[nH]c2c1 [axitinib, N-methyl-2-[3((E)-2-pyridin-2-yl-vinyl)-1H-indazol-6-ylsulfanyl]-benzamide]	suppressed	no	extensive MDSC infiltration	extensive MDSC infiltration	no	> 0.2 µg/mL	4.8	not altered by food	–	–	–	–	–	–	–	–	–
MI-319	–	–	–	–	–	–	–	–	prevented	prevented	suppresses	–	–	–	–	–	–
NCCCCN(Cc1nc2ccccc2[nH]1)[C@H]1CCCc2cccnc21 [X4P-001]	–	modest	significantly less MDSC infiltration	significantly less MDSC infiltration	modest	–	–	–	–	–	–	reduction in the level of HIF-2α relative to that caused by axitinib treatment	mir-30a and mir-30c induction	HIF-2α reduction	dependent on Stat3 expression	dose- and concentration-related changes	high
